Source: patent publication US6759546B1, “3,5-di-iso-propyl-heptatrienoic acid derivatives having serum glucose reducing activity” (Allergan, Inc., priority 2003, dated 2004)
Numbering of substitutions follows the chain as printed. Like-named read-outs stand apart in the source and are kept apart here. Blank lines part the entries; values can stand above or below the compound they belong to.

Key:
RXRα [1] = target: T1, RXRα (Homo sapiens, UniProt P19793); experiment: ligand binding assay; conditions: read-out: RXR Bind. Ki α
T1 construct: expressed in transfected cells
T1 sequence (P19793 1-462): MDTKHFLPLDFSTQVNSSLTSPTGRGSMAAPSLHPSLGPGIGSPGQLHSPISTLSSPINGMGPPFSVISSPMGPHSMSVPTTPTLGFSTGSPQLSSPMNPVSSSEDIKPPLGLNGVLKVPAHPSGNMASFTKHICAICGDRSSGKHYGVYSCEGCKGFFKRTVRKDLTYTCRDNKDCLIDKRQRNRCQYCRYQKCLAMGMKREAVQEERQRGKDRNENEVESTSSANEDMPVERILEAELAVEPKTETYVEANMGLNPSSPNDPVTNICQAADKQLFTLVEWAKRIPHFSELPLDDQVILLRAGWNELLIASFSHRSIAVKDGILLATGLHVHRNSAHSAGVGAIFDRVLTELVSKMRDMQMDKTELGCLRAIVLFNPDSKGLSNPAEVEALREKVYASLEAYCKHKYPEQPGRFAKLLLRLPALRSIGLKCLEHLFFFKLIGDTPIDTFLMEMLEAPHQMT
From the text: (§1) The results of the ligand binding assay are expressed in Ki numbers.

RARγ = target: T2, RARγ (Homo sapiens, UniProt P13631); experiment: ligand binding assay; conditions: read-out: RAR Bind. Ki γ
T2 sequence (P13631 1-454): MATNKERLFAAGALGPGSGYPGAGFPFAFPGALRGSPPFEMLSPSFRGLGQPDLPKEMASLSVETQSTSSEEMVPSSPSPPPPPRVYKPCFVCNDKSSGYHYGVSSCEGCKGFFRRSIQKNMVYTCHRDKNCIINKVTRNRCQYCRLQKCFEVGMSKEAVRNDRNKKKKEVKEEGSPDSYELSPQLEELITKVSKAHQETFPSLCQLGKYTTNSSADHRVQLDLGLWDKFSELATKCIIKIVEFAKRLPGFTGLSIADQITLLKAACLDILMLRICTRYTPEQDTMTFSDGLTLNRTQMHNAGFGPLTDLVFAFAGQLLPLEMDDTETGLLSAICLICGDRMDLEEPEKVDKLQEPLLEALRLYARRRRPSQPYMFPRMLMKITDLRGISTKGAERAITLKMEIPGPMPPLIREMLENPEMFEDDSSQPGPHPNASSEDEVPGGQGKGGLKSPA
From the text: as §1

[2] = system: female diabetic db/db mice; experiment: serum glucose, triglyceride and thyroxine levels in db/db mice; assay type: in vivo; conditions: for Glucose Day 0 / Triglycerides Day 0: day 0 (pre-treatment)
Procedure: An assay described below tests the effect of compounds of the invention on serum glucose, tryglyceride and thyroxine levels in female 9-10 weeks old db/db mice.
Blood samples (70 μl) were taken by orbital bleeding at 11:00 AM on day 0 (pre-treatment), day 3, and day 6. On day 7, a blood sample (700 μl) was taken at 11:00 AM and the animals were sacrificed. Glucose, triglyceride and thyroxine (T4) levels were determined on a Boehringer Manheim Hatachi Clinical Chemistry Analyzer using standard protocols provided by the manufacturer and reagents that were supplied in commercially available kits (glucose and T4: Boehringer Manheim; triglycerides: Roche Diagnostics). Seven animals were treated in each group.

RXRβ [3] = target: T3, RXRβ (Homo sapiens, UniProt P28702); experiment: ligand binding assay; conditions: read-out: RXR Bind. Ki β
T3 sequence (P28702 1-533): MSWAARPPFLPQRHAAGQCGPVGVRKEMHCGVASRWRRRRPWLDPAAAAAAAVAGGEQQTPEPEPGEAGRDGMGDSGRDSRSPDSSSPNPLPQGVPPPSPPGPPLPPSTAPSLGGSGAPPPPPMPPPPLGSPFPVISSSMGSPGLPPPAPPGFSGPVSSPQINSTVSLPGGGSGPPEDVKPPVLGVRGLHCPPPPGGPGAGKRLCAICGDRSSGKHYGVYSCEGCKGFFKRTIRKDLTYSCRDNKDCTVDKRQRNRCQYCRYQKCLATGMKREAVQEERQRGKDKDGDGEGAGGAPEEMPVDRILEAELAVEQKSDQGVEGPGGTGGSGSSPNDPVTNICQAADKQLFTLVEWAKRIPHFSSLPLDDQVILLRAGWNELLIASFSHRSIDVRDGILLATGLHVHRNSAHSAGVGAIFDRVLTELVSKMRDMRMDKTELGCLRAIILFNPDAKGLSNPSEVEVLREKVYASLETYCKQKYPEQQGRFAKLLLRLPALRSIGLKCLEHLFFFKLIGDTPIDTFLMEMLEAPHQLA
From the text: as §1

RXRγ [4] = target: T4, RXRγ (UniProt P28705); experiment: holoreceptor transactivation assay; conditions: percentage compared to the standard compound
T4 sequence (P28705 1-463): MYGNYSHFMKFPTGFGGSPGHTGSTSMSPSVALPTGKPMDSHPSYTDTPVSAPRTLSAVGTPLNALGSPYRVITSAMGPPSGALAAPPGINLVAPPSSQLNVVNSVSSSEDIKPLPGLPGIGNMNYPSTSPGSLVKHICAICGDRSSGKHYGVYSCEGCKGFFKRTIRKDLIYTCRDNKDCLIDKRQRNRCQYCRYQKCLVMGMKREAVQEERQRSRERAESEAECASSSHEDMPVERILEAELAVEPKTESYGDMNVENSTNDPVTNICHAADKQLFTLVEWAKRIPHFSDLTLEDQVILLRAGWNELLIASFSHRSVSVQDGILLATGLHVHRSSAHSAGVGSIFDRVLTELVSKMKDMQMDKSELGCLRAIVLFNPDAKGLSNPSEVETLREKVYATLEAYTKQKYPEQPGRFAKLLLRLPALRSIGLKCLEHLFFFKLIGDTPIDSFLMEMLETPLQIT
From the text: (§2) The results obtained in this assay are expressed in EC50 numbers, as they are also in the chimeric receptor transactivation assay.
(§3) Particularly, the transactivation data pertaining to activation of the RAR receptors were obtained in the chimeric assay, and the transactivation data pertaining to the activation of RXR receptors were obtained in the holoreceptor assay.

RXRβ [5] = target: T5, RXRβ (UniProt P28704); experiment: holoreceptor transactivation assay
T5 sequence (P28704 1-520): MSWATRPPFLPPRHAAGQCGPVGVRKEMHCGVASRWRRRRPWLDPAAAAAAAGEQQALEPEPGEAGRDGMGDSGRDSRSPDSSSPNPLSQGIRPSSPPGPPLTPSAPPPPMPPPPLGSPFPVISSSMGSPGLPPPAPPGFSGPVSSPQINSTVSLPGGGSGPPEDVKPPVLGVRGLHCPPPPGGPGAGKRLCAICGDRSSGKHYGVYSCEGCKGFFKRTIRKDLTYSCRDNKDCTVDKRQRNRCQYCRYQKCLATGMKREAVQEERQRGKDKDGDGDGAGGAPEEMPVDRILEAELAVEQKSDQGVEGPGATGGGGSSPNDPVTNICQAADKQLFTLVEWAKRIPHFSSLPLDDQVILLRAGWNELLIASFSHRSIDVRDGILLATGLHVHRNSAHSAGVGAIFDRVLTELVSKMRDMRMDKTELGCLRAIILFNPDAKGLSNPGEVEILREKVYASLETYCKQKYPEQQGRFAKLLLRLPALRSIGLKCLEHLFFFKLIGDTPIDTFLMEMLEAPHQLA
From the text: as §2, §3

RARα = target: T6, RARα (Homo sapiens, UniProt P10276); experiment: ligand binding assay; conditions: read-out: RAR Bind. Ki α
T6 sequence (P10276 1-462): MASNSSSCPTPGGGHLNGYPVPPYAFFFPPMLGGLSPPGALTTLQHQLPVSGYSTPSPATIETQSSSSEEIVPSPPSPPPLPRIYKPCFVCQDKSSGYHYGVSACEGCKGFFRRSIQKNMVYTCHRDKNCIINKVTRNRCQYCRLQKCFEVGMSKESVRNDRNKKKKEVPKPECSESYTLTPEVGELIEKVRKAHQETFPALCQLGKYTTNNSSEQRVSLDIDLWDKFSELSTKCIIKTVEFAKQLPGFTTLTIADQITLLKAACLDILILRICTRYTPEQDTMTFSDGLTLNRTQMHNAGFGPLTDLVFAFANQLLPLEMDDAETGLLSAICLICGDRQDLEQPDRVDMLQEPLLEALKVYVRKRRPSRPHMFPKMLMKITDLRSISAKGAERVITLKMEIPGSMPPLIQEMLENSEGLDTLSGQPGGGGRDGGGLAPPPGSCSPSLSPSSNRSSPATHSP
From the text: as §1

RXRα [6] = target: T1, RXRα; experiment: holoreceptor transactivation assay; assay type: cell-based; conditions: for EC50: holoreceptor assay, read-out: RXR Trans. EC50 α; for RXR Trans. efficacy α: percentage compared to the standard compound
From the text: as §2, §3

RARβ = target: T7, RARβ (Homo sapiens, UniProt P10826); experiment: ligand binding assay; conditions: read-out: RAR Bind. Ki β
T7 sequence (P10826 1-455): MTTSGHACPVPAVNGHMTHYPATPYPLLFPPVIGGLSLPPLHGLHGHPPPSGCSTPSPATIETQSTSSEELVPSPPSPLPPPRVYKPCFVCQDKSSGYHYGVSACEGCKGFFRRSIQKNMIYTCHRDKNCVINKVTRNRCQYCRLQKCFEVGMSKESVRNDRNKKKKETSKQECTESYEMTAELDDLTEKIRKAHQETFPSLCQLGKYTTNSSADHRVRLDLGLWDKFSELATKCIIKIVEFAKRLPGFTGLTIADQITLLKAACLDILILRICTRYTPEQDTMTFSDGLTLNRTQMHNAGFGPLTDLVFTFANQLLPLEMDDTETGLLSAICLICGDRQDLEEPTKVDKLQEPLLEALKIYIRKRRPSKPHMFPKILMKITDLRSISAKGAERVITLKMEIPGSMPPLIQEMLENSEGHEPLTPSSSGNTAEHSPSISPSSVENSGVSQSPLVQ
From the text: as §1

RXRγ [7] = target: T8, RXRγ (Homo sapiens, UniProt P48443); experiment: ligand binding assay; conditions: read-out: RXR Bind. Ki γ
T8 sequence (P48443 1-463): T4 sequence (P28705 1-463) with T13A, F15Y, V31A, P34S, S228T, S230G, V258M, S450T
From the text: as §1

[8] = Table 3, 50 mg/kg oral gavage daily
[9] = percentage compared to the standard compound
[10] = Table 2, 5 mg/kg oral gavage daily
[11] = Table 3, 5 mg/kg oral gavage daily
[12] = Table 2, 50 mg/kg oral gavage daily

- Ki (RXRα [1]): 1 nM
- Ki (RARγ): 310 nM
- T4 Day 7 [2, 8]: 3.0 µg/dL
- Ki (RXRβ [3]): 12 nM
- RXR Trans. efficacy γ (RXRγ [4]): 21%
- RXR Trans. efficacy β (RXRβ [5]; [9]): 29%
- Ki (RARα): 170 nM
- EC50 (RXRα [6]): 1 nM
- RXR Trans. efficacy α (RXRα [6]): 33%
- Ki (RARβ): 80 nM
Compound: CCCOc1c(\C(=C/C=C/C(C)=C/C(=O)O)CC)cc(C(C)C)cc1C(C)C [Compound 8, 7-(3,5-Diisopropyl-2-propoxy-phenyl)-3-methyl-nona-2,4,6-trienoic acid]
- Glucose Day 0 [2, 8]: 468 mg/dL
- Triglycerides Day 0 [2, 8]: 173 mg/dL
- Glucose Day 3, 3 h [2, 8]: 443 mg/dL
- Triglycerides Day 3, 3 h [2, 8]: 278 mg/dL
- Glucose Day 6, 3 h [2, 8]: 384 mg/dL

- T4 Day 7 [2, 10]: 1.2 µg/dL
- T4 Day 7 [2, 11]: 1.4 µg/dL
- effect on serum thyroxine levels ([2]; diabetic mammals, summary in words): reducing serum thyroxine levels
- RXR Trans. efficacy β (RXRβ [5]): 0.4 (100) 1%
- RXR Trans. efficacy α (RXRα [6]): 100%
Compound: CC(/C=C/[C@@H]1C[C@]1(C)c1ccc2c(c1)C(C)(C)CCC2(C)C)=C\C(=O)O [Standard compound]
- Glucose Day 0 [2, 10]: 378 mg/dL
- Triglycerides Day 0 [2, 10]: 171 mg/dL
- Glucose Day 3, 3 h [2, 10]: 308 mg/dL
- Triglycerides Day 3, 3 h [2, 10]: 472 mg/dL
- Glucose Day 6, 3 h [2, 10]: 333 mg/dL
- Glucose Day 0 [2, 11]: 409 mg/dL
- Triglycerides Day 0 [2, 11]: 193 mg/dL
- Glucose Day 3, 3 h [2, 11]: 369 mg/dL
- Triglycerides Day 3, 3 h [2, 11]: 50 mg/dL
- Glucose Day 6, 3 h [2, 11]: 378 mg/dL

- Ki (RXRα [1]): 1 nM
- Ki (RARγ): 550 nM
- T4 Day 7 [2, 12]: 2.2 µg/dL
- Ki (RXRβ [3]): 12 nM
- RXR Trans. efficacy γ (RXRγ [4]): 25%
- RXR Trans. efficacy β (RXRβ [5]; [9]): 33%
- Ki (RARα): 310 nM
- EC50 (RXRα [6]): 0.4 nM
- RXR Trans. efficacy α (RXRα [6]): 34%
- Ki (RARβ): 200 nM
- Ki (RXRγ [7]): 21 nM
Compound: CCCOc1c(\C(C)=C/C=C/C(C)=C/C(=O)O)cc(C(C)C)cc1C(C)C [Compound 16, 7-(3,5-Diisopropyl-2-propoxy-phenyl)-3-methyl-octa-2,4,6-trienoic acid]
- Glucose Day 0 [2, 12]: 365 mg/dL
- Triglycerides Day 0 [2, 12]: 199 mg/dL
- Glucose Day 3, 3 h [2, 12]: 283 mg/dL
- Triglycerides Day 3, 3 h [2, 12]: 189 mg/dL
- Glucose Day 6, 3 h [2, 12]: 309 mg/dL
